Assay results published in ChEMBL document CHEMBL1201862, “PubChem BioAssay data set” (2004).
The source made the active and inactive calls.

Experiments:
[1] = molecular target: T1, Kappa-type opioid receptor (Homo sapiens, UniProt P41145); format: functional
Beta-galactosidase [2] = molecular target: T2, Beta-galactosidase (Escherichia coli, UniProt Q8VNN2); format: functional
Mucolipin-3 = molecular target: T3, Mucolipin-3 (Homo sapiens, UniProt Q8TDD5); assay: Dose response cell-based high-throughput screening assay for agonists of the transient receptor potential channel ML3 (TRPML3). [Related pubchem assays: 1526, 1424, 1448 ]; format: functional
T3 sequence (Q8TDD5 whole entry): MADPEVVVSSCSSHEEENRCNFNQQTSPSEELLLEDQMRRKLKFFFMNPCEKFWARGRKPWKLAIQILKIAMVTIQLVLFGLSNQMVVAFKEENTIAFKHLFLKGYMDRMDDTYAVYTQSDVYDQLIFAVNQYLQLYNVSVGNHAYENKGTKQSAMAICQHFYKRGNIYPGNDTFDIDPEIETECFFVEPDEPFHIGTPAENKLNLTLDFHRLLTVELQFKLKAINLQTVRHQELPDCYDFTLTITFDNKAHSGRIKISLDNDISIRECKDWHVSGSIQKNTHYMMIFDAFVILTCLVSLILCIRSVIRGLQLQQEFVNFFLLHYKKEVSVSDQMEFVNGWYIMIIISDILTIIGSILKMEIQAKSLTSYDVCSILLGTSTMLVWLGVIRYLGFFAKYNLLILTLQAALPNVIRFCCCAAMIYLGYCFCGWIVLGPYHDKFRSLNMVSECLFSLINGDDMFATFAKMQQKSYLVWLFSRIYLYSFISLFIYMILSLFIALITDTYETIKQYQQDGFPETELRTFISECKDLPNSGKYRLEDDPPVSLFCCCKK

[3] = molecular target: T1, Kappa-type opioid receptor; format: functional; remark: listed apart in the source
Ion channel NompC = Ion channel NompC (Danio rerio, UniProt Q7T1G6); assay: Fluorescence counterscreen assay for TRPML3 agonists: dose response cell-based high-throughput screening assay to identify agonists of the transient receptor potential channel N1 (TRPN1). [Related pubchem assays: 1526, 1424, 1448 ]; format: functional
[4] = molecular target: Photoreceptor-specific nuclear receptor (Homo sapiens, UniProt Q9Y5X4); format: functional, cell-based;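 further: CHO-S cells with Gal4-NCOR and VP16-NR2E3 two-hybrid luciferase reporter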
Chain of Photoreceptor-specific nuclear receptor (Q9Y5X4 whole entry, the tested form may be a part): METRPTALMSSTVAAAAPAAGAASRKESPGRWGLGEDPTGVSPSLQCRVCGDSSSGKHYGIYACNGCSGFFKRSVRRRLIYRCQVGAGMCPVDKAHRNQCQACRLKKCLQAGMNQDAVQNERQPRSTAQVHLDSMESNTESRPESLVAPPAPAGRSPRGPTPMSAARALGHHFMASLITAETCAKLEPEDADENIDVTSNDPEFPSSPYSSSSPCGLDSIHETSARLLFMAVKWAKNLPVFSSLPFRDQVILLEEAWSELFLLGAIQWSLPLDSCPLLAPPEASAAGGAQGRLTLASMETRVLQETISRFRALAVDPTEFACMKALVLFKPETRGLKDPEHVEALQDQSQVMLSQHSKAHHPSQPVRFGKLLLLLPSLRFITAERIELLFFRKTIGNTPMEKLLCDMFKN

Beta-galactosidase [5] = molecular target: T2, Beta-galactosidase; assay: detection-enzyme interference by beta-gal modulators – biochemical, E. coli enzyme, set 3, artefact control for CCR6 antagonist project, dose response (AID 504712); format: functional
[6] = molecular target: G-protein coupled receptor 55 (Homo sapiens, UniProt Q9Y2T6); assay: inhibition of LPI-stimulated GPR55 beta-arrestin translocation – imaging, U2OS, beta-arrestin-GFP, LPI agonist, primary screen (AID 2013); format: functional;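 further: antagonist potency measured as reduced agonist-driven arrestin aggregation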
Chain of G-protein coupled receptor 55 (Q9Y2T6 whole entry): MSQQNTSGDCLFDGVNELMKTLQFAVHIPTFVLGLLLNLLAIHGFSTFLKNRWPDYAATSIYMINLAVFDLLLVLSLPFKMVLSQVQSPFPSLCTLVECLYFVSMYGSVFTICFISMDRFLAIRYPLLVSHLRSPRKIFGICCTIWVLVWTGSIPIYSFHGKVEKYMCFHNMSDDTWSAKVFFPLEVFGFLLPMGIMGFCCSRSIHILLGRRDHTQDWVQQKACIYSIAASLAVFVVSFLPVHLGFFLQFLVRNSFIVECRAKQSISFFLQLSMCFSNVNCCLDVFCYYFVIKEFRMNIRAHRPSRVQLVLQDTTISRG

[7] = molecular target: Voltage-dependent T-type calcium channel subunit alpha-1H (Homo sapiens, UniProt O95180); assay: human CACNA1H calcium influx blockade – cell-based, synthetic library set 1, calcium flux (AID 493022); format: functional
[8] = molecular target: T4, Delta-type opioid receptor (Homo sapiens, UniProt P41143); assay: SAR Analysis of Antagonists of the DOR Receptor using an Image-Based Assay - Set 3. [Related pubchem assays (depositor defined):AID1777, AID1785]; format: functional
T4 sequence (P41143 whole entry): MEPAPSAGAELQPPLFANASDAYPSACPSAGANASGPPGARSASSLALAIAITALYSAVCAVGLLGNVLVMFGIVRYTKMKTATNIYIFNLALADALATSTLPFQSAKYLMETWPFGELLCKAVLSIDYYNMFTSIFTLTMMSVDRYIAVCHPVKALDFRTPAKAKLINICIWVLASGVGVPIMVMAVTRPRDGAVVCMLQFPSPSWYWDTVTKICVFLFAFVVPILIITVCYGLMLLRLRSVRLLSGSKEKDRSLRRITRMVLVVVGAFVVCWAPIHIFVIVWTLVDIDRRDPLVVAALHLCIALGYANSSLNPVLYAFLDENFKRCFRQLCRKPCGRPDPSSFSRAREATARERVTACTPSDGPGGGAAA

Mu-type opioid receptor [9] = molecular target: T5, Mu-type opioid receptor (Homo sapiens, UniProt P35372); assay: SAR Analysis of Antagonists of the MOR Receptor using an Image-Based Assay - Set 3. [Related pubchem assays (depositor defined):AID1777, AID1785, AID1786, AID1966, AID2133, AID2136, AID2284, AID2285, AID2420]; format: functional
T5 sequence (P35372 whole entry): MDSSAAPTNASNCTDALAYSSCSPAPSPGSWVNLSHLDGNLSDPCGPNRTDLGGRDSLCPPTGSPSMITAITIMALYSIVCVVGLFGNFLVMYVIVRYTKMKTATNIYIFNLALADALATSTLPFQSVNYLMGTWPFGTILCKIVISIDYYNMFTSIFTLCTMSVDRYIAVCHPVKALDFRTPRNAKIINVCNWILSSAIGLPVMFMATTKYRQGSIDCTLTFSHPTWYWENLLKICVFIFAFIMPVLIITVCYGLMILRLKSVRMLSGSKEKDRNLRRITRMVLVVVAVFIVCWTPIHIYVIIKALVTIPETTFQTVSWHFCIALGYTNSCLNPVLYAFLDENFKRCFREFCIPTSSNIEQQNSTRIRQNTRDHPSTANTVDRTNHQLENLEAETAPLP

Coagulation factor XII = Coagulation factor XII (Homo sapiens, UniProt P00748); format: functional;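 further: activated factor XIIa alpha cleaving a fluorogenic AMC peptide substrate; inhibitor potency from loss of enzyme activity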
Chain of Coagulation factor XII (P00748 20-372 limits assumed): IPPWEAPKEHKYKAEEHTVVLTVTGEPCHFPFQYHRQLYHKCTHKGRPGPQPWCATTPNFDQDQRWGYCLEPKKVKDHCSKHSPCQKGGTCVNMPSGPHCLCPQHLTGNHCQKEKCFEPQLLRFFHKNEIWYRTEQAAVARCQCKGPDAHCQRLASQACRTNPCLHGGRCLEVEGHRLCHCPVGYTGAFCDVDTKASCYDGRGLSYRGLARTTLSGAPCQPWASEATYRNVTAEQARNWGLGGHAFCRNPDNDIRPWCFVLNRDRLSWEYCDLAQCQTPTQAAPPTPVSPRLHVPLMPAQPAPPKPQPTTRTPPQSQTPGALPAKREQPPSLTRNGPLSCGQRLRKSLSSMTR
Chain of Coagulation factor XII (P00748 373-615 limits assumed): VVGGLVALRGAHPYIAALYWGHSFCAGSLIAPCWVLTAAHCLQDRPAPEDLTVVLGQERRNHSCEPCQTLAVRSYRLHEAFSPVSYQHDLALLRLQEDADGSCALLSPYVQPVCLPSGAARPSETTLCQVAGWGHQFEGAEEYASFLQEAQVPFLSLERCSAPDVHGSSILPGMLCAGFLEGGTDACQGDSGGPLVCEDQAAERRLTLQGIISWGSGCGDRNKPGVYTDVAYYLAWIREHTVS

Nonstructural protein 1 = Nonstructural protein 1 (Influenza A virus, UniProt Q194T2); format: functional, Influenza A virus (A/California/07/2009(H1N1))
Chain of Nonstructural protein 1 (Q194T2 whole entry): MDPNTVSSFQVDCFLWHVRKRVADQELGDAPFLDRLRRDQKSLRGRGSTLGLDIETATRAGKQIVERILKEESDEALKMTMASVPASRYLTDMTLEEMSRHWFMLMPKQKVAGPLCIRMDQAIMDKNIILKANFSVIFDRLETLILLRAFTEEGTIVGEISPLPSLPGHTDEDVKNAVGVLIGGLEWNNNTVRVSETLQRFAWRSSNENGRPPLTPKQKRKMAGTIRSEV

[10] = molecular target: T1, Kappa-type opioid receptor; format: functional; remark: listed apart in the source
Mu-type opioid receptor [11] = molecular target: T5, Mu-type opioid receptor; assay: HTS Image-Based Screen for Agonists of the MOR Receptor. [Related pubchem assays (depositor defined):AID1777, AID1785, AID1786, AID2133]; format: functional
[12] = molecular target: T6, Neuropeptides B/W receptor type 1 (Homo sapiens, UniProt P48145); assay: Fluorescence-based dose response cell-based high throughput screening assay to identify antagonists of the G-protein coupled receptor 7 (GPR7). [Related pubchem assays: 1952 (Screening assay (GPR7 antagonists).), 1880 (Summary AID.)]; format: functional
T6 sequence (P48145 whole entry): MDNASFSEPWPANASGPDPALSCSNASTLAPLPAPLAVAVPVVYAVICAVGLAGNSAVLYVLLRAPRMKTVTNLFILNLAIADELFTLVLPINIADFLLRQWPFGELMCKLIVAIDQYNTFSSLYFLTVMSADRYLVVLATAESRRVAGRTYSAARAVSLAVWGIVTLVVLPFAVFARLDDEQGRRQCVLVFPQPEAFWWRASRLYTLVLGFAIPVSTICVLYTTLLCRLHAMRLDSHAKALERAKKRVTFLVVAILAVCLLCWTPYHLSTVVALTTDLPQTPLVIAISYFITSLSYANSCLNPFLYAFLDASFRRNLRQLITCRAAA

[13] = molecular target: T4, Delta-type opioid receptor; assay: HTS Image-Based Screen for Antagonists of the DOR Receptor. [Related pubchem assays (depositor defined):AID1777, AID1785, AID1786, AID2133]; format: functional
[14] = molecular target: T1, Kappa-type opioid receptor; format: functional; remark: listed apart in the source
[15] = molecular target: Melanin-concentrating hormone receptor 1 (Homo sapiens, UniProt Q99705); assay: Fluorescence-based counterscreen for antagonists of the G-protein coupled receptor 7 (GPR7): cell-based high throughput dose response assay to identify antagonists of the melanin-concentrating hormone receptor 1 (MCHR1).; format: functional
Chain of Melanin-concentrating hormone receptor 1 (Q99705 whole entry): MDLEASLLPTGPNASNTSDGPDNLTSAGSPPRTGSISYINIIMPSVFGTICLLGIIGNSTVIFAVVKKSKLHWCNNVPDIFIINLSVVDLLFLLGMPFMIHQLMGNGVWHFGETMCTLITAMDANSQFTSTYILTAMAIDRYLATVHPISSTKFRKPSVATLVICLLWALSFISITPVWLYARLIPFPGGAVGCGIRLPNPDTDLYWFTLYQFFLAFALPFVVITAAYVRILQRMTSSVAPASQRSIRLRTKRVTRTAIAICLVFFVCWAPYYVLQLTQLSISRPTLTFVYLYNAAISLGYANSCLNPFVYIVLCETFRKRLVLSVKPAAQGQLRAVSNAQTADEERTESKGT

[16] = molecular target: T4, Delta-type opioid receptor; assay: HTS Image-Based Screen for Agonists of the DOR Receptor. [Related pubchem assays (depositor defined):AID1777, AID1786, AID2133]; format: functional
[17] = molecular target: T7, Heat shock factor protein 1 (Mus musculus, UniProt P38532); assay: enhancement of HSF1-driven luciferase signal – cell-based, NIH3T3, luminescence, dose retest, confirmation (AID 435004); format: functional;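 further: stress induced by proteasome inhibitor MG132 added 30 min after compound; luciferase reporter driven by HSF1 response element in NIH3T3 cells; actives raise luminescence as potentiators of the MG132 stress response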
T7 sequence (P38532 whole entry): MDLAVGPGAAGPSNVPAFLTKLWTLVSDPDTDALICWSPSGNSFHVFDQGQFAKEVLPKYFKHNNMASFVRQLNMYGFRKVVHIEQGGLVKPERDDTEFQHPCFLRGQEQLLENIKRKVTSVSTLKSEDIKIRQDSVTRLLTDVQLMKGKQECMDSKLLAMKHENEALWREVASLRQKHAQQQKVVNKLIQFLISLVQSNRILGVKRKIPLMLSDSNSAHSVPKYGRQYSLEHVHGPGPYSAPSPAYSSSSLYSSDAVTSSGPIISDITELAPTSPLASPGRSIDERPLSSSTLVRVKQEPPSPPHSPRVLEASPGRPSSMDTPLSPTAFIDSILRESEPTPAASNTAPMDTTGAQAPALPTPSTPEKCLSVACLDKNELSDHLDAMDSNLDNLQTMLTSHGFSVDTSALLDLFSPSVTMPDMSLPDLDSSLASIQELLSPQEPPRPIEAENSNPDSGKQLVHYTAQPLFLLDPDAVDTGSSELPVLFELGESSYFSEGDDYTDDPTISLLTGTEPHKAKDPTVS

T1 sequence (P41145 whole entry): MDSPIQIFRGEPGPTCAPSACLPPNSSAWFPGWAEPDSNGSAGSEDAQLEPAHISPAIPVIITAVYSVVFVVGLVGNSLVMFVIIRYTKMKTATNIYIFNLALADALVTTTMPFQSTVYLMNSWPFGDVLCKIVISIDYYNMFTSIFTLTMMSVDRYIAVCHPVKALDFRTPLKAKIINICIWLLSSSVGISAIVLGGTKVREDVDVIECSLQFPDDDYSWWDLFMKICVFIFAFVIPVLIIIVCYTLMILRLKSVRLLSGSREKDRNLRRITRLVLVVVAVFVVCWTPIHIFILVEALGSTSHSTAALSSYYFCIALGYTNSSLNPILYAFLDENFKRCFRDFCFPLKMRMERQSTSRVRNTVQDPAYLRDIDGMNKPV
T2 sequence (Q8VNN2 whole entry): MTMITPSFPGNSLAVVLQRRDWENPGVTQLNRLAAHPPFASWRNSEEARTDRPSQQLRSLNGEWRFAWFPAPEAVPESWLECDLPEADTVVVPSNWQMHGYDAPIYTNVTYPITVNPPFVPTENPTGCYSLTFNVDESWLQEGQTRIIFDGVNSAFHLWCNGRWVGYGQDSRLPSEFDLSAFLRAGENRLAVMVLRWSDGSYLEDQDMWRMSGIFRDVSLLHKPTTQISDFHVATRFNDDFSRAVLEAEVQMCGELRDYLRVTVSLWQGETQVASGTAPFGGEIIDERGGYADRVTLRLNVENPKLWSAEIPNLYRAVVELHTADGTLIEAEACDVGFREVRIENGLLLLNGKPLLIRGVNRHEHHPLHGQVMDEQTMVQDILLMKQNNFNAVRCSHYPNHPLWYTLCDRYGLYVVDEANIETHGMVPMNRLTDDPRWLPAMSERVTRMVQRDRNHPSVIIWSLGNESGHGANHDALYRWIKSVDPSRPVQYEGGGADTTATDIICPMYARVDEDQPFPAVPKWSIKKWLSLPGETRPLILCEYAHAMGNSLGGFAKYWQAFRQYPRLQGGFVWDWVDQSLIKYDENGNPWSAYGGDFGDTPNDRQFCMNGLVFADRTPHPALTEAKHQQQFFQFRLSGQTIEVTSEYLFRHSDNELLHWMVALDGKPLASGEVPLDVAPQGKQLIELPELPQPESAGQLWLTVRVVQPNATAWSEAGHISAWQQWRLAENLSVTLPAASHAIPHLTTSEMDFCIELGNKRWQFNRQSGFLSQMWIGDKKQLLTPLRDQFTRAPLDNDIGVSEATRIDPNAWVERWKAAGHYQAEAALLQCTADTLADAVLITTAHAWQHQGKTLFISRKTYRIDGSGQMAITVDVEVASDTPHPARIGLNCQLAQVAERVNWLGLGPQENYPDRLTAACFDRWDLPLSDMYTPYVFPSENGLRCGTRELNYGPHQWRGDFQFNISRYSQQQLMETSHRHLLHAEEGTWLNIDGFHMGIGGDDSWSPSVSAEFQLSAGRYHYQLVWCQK

N=C1SCC(=O)N1c1ncc(Cc2ccccc2Cl)s1
IC50 [1]: 6.6 µM (active) | EC50 (Beta-galactosidase [2]): > 31.5 µM (inactive) | EC50 (Mucolipin-3): 1.16 µM (active) | IC50 [3]: > 32 µM | EC50 (Ion channel NompC): > 29.9 µM (not active) | IC50 [4]: 3 µM (active) | IC50 (Beta-galactosidase [5]): > 66.6 µM (inactive)

C[C@H](NC(=O)c1nc[nH]c1C(=O)Nc1ccc(CNC(=O)OC(C)(C)C)cc1)C(=O)OC(C)(C)C
IC50 [6]: 2.55 µM (active)

O=C(COc1ccccc1Cl)Nc1nnc(-c2ccc3ccccc3c2)o1
EC50 [7]: 4.8 µM (active)

COc1ccc(N2CCN(CCCNC(=O)Cn3c(=O)c4cccn4c4c(C)ccnc43)CC2)cc1
IC50 [8]: > 32 µM (inactive) | IC50 (Mu-type opioid receptor [9]): > 32 µM (inactive)

Cc1ccc(S(=O)(=O)CCN2C=CC(C(F)(F)F)=NCC2)cc1
IC50 (Coagulation factor XII): > 50 µM (inactive)

Nc1[nH]n(-c2ccccc2)c(=O)c1N=Nc1ccc2c(c1)OCCO2
IC50 (Nonstructural protein 1): 28.8 µM (active)

O=C(c1ccccn1)N(Cc1ccco1)C1(C(=O)NC2CCCC2)CCCCC1
EC50 [10]: 12.3 µM | EC50 (Mu-type opioid receptor [11]): > 32 µM (inactive) | IC50 [12]: > 43.8 µM (not active) | IC50 [13]: > 32 µM (inactive) | EC50 [14]: 14.6 µM | IC50 [15]: > 43.8 µM (not active) | EC50 [16]: > 32 µM (inactive) | EC50 [17]: > 260 µM (inactive)
